These are literature values, as cited in patent US10512655B1, “Methods and compositions for the topical treatment of peripheral neuropathy” (Jeffrey S. Brooks, Inc., priority 2013, dated 2019).

Series [1] has as its system patients with type 1 diabetes. Conditions: oral, 300 mg/day over 24 months.
Series [2] has as its system patients suffering from DPN. The settings on record: topical, KY gel non-occlusive vehicle.

On to `C/C(=C(\CCOP(=O)(O)O)SC(=O)c1ccccc1)N(C=O)Cc1cnc(C)nc1N` [benfotiamine, Benfotiamine], for which the “effects upon peripheral nerve function or soluble markers of inflammation” value in series [1] was “no significant effects”.
In the case of `CN1CC[C@]23c4c5ccc(O)c4O[C@H]2[C@@H](O)C=C[C@H]3[C@H]1C5` [morphine], the pain relief result in series [2] is on record as “no pain relief”.
